The results in this text go back to ChEMBL document CHEMBL4725493, “Novel 2-Aryloxazoline Compounds Exhibit an Inhibitory Effect on Candida spp., Including Antifungal-Resistant Isolates” (ACS Med Chem Lett, 2020).

The MIC is the lowest concentration that inhibits growth of the organism. A low value points to inhibition by little substance. By CC50 is commonly meant the concentration giving 50% cytotoxicity.

In one data set the test system is Candida tropicalis. The data set is described as follows: Antifungal activity against Candida tropicalis ATCC 200956 by CLSI standard M27 broth microdilution method. The data set is classed as functional. On the technique in general: Dilution methods test growth across graded concentrations, often in twofold steps.
The next data set concerns Cryptococcus gattii. The data set is described as follows: Fungicidal activity against Cryptococcus gattii ATCC 56990 assessed as loss of fungal growth by CLSI method. The data set is classed as functional, organism-based. The settings on record: Cryptococcus bacillisporus.
For the next data set, the system named is Erythrocyte. Kind of data set: Hemolytic activity in human RBC by spectrophotometry. The data set is classed as ADME, cell-based.
For the next data set, the system named is HepG2. Kind of data set: Cytotoxicity against human HepG2 cells assessed as reduction in cell viability by XTT assay. The data set is classed as cell-based. (In general: Tetrazolium dyes change colour on reduction, which living cells bring about.)
Data set [1] in a line: Selectivity index, ratio of HA50 to human RCB to MIC of antifungal activity against Candida tropicalis ATCC 200956. The data set is classed as toxicity. The settings on record: human red blood cells (RCB).
In data set [2] the test system is [Candida] auris. Kind of data set: Antifungal activity against Candida auris CBS 10913 by CLSI standard M27 broth microdilution method. The data set is classed as functional. The note with it: Candidozyma auris.
The next data set deals with Candida duobushaemulonii. Kind of data set: Antifungal activity against Candida duobushaemulonis CBS 7799 by CLSI standard M27 broth microdilution method. The data set is classed as functional. The note with it: Candidozyma duobushaemuli.
Another data set concerns Aspergillus fumigatus. The data set is described as follows: Antifungal activity against Aspergillus fumigatus ATCC 16913 by CLSI standard M38 broth microdilution method. The data set is classed as functional, organism-based.
For a further data set, the system named is Cryptococcus neoformans. Kind of data set: Fungicidal activity against Cryptococcus neoformans ATCC 208821 assessed as loss of fungal growth by CLSI method. The data set is classed as functional, organism-based.
Data set [3] is described as follows: Selectivity index, ratio of CC50 of human HepG2 cells to MIC of antifungal activity against Candida tropicalis ATCC 200956. The data set is classed as toxicity.
The next data set relates to Aspergillus niger. The data set is described as follows: Antifungal activity against Aspergillus niger by CLSI standard M38 broth microdilution method. The data set is classed as functional, organism-based.
Data set [4] concerns [Candida] auris. The data set is described as follows: Antifungal activity against Candida auris CBS 12766 by CLSI standard M27 broth microdilution method. The settings on record: Candidozyma auris. The data set is classed as functional.
Data set [5] can be described thus: Antifungal activity against Candida pseudohaemulonis CBS 10004 by broth microdilution method. The data set is classed as functional. The note with it: Candidozyma pseudohaemuli.

In brackets after ≈: the same amount, converted by molar mass. Activity calls are given as the source filed them. The rule behind the calls is not given here.

As for `C[C@H]1OC(c2ccc(Cl)cc2O)=N[C@H]1C(=O)OCc1ccccc1`, the MIC against Candida tropicalis is at most 0.03 µg/mL; in data set [Candida] auris [2] it was 0.06 µg/mL (≈ 0.174 µM); against Candida duobushaemulonii it was 0.5 µg/mL (≈ 1.45 µM); in [Candida] auris [4], 2 µg/mL (≈ 5.78 µM); in [5], 0.25 µg/mL (≈ 0.723 µM). In addition, the outcome in the data set with Cryptococcus gattii and with Cryptococcus neoformans was Active. Moreover, the Activity in the data set with Erythrocyte was over 128 µg/mL. Also, the CC50 with HepG2 worked out at 95 µg/mL (≈ 275 µM). For the same compound, the values for the selectivity ratio in [1] and in [3] were at least 512 and at least 380, respectively. Besides, the inhibition entry in the data set on Aspergillus fumigatus and in the data set with Aspergillus niger was “Active” throughout.
